Assay results: patent US5073565A, “Tetrazole ureas and thioureas and their use as ACAT inhibitors” (Warner-Lambert Company, priority 1990, dated 1991)

System: not listed separately
Experiment: in vivo screen designated APCC (total cholesterol in rats on PCC diet)
Set-up: species or system male Sprague-Dawley rats
Details: rat, 50 (mg/dl), N/C means no change
From the text: In one in vivo screen designated APCC, male Sprague-Dawley rats (200 to 225 g) were randomly divided into treatment groups and dosed at 4 PM with either vehicle (CMC/Tween) or suspensions of compounds in vehicle. The normal chow diet was then replaced with the PCC diet (5.5% peanut oil, 1.5% cholesterol, and 0.5% cholic acid). The rats consumed this diet a libitum during the night and were sacrificed at 8 AM to obtain blood samples for cholesterol analysis using standard procedures. Statistical differences between mean cholesterol values for the same vehicle were determined using analysis of variance followed by Fisher's least significant test. The results of this trail for representative compounds of the present invention appear in Table II wherein percent change means the difference in total cholesterol between control, and the drug-treated animals, and the (mg/dL) is the milligrams of compound per deciliter of vehicle administered. The milligrams are reflected parenthetically.

For `CC(C)c1cccc(C(C)C)c1NC(=O)Nc1nnn(Cc2ccccc2)n1` [Example 17, N-[2,6-Bis(1-methylethyl)phenyl]-N'-(2-phenylmethyl-2H-tetrazol-5-yl)urea], the “% Change (difference in total cholesterol between control and drug-treated animals)” value was “N/C”.

Molecular target: T1, acyl-CoA: cholesterol acyltransferase (ACAT) (Oryctolagus cuniculus, UniProt G1SFD9)
T1 construct: tissue preparation containing rabbit intestinal microsomes; from tissue; host or cells: rabbit intestinal microsomes
T1 sequence (G1SFD9 1-524): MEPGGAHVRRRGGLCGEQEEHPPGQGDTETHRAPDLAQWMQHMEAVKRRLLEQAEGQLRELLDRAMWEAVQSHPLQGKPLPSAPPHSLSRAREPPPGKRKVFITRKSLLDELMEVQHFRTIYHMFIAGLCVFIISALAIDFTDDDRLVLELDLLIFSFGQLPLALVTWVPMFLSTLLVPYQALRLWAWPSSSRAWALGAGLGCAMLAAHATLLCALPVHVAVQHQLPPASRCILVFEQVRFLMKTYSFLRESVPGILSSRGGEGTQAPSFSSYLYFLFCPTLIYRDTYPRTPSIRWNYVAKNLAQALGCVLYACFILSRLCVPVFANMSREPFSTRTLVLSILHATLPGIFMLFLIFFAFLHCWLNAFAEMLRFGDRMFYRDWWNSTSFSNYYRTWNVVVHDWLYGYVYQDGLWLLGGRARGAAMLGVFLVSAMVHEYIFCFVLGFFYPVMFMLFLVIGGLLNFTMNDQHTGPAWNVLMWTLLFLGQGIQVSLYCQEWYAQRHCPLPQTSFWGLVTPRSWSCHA
Experiment: in vitro ACAT inhibition (radiolabeled cholesterol oleate formed from radiolabeled oleic acid, rabbit intestinal microsomes)
Assay type: biochemical
Details: read-out: IC50 (concentration of test compound required to inhibit the activity of the enzyme by 50%)
Method: The ability of representative compounds of the present invention to inhibit ACAT was measured using an in vitro test more fully described in Field, F. J. and Salone, R. G., Biochemica et Biophysica, 712:557-570 (1982). The test assesses the ability of a test compound to inhibit the acylation of cholesterol by oleic acid by measuring the amount of radiolabeled cholesterol oleate formed from radiolabeled oleic acid in a tissue preparation containing rabbit intestinal microsomes.
The data appear in Table I where they are expressed in IC50 values; i.e., the concentration of test compound required to inhibit the activity of the enzyme by 50%.

Point of comparison: `CC(C)c1cccc(C(C)C)c1NC(=O)Nc1nnn(CCCCCCCCCCOC2CCCCO2)n1` (stereo not shown) [Example 7], IC50 12 nM. Against it:
- CC(C)c1cccc(C(C)C)c1NC(=O)Nc1nnn(CCCCCCCCCCCCOC2CCCCO2)n1 (stereo not shown) [1 (c)] — 3-fold higher, 36 nM
- CC(C)c1cccc(C(C)C)c1NC(=O)Nc1nnn(CCCCCCCCCCCCO)n1 [1 (d), N-[2,6-Bis(1-methylethyl)phenyl]-N'-[2-(12-hydroxy-dodecyl)-2H-tetrazol-5-yl] urea] — 1.8-fold higher, 21 nM
- CCCCCCCCCCCCCCn1nnc(NC(=O)Nc2c(C(C)C)cccc2C(C)C)n1 [Example 3, N-[2,6-bis(1-methylethyl)phenyl]-N'-(2-tetradecyl-2H-tetrazol-5-yl)urea] — the same, 12 nM
- CCCCCCCCCCCCCn1nnc(NC(=O)Nc2c(C(C)C)cccc2C(C)C)n1 [Example 4, N-[2,6-Bis(1-methylethyl)phenyl]-N'-(2-tridecyl-2H-tetrazol-5-yl)urea] — within 1.5-fold, 9 nM
- CCCCCCCCCCCCn1nnc(NC(=O)Nc2c(C(C)C)cccc2C(C)C)n1 [Example 5, N-[2,6-Bis(1-methylethyl)-phenyl]-N'-(2-dodecyl-2H-tetrazol-5-yl)urea] — within 1.5-fold, 14 nM
- CCCCCCCCCCCCCCCCn1nnc(NC(=O)Nc2c(C(C)C)cccc2C(C)C)n1 [Example 6, N-[2,6-Bis(1-methylethyl)-phenyl]-N'-(2-hexadecyl-2H-tetrazol-5-yl)urea] — 4.8-fold higher, 57 nM
- CCCCCCCCCCCn1nnc(NC(=O)Nc2c(C(C)C)cccc2C(C)C)n1 [Example 10, N-[2,6-Bis(1-methylethyl)-phenyl]-N'-(2-undecyl-2H-tetrazol-5-yl)urea] — within 1.5-fold, 9 nM
- CCCCn1nnc(NC(=O)Nc2c(C(C)C)cccc2C(C)C)n1 [Example 11, N-[2,6-Bis(1-methylethyl)-phenyl]-N'-(2-butyl-2H-tetrazol-5-yl)urea] — 7.7-fold higher, 92 nM
- CC(C)c1cccc(C(C)C)c1NC(=O)Nc1nnn(CCCCCCCCCCO)n1 [Example 15, N-[2,6-Bis(1-methylethyl)phenyl]-N'-[2-(10-hydroxy-decyl)-2H-tetrazol-5-yl]urea] — 6-fold higher, 72 nM
- CC(C)c1cccc(C(C)C)c1NC(=O)Nc1nnn(Cc2ccccc2)n1 [Example 17, N-[2,6-Bis(1-methylethyl)phenyl]-N'-(2-phenylmethyl-2H-tetrazol-5-yl)urea] — 31-fold higher, 370 nM
- CC(C)c1cccc(C(C)C)c1NC(=O)Nc1nnnn1Cc1ccccc1 [Example 19, N-[2,6-Bis(1-methylethyl)phenyl]-N'-(1-phenylmethyl-1H-tetrazol-5-yl)urea] — 25-fold higher, 300 nM
- CCCCCCCCCCn1nnnc1NC(=O)Nc1c(C(C)C)cccc1C(C)C [Example 20] — 15-fold higher, 180 nM
- CC(C)c1cccc(C(C)C)c1NC(=O)Nc1nnnn1CCc1ccccc1 [Example 21] — 27-fold higher, 327 nM
- CCCCCCCCn1nnc(NC(=O)Nc2c(C(C)C)cccc2C(C)C)n1 [Example 22, N-[2,6-Bis(1-methylethyl)phenyl]-N'-(2-octyl-2H-tetrazol-5-yl)urea] — 4.9-fold higher, 59 nM
- CCCCCCn1nnc(NC(=O)Nc2c(C(C)C)cccc2C(C)C)n1 [Example 23, N-[2,6-Bis(1-methylethyl)phenyl]-N'-(2-hexyl-2H-tetrazol-5-yl)urea] — 6.1-fold higher, 73 nM
- CCCCCCCCCCn1nnc(NC(=O)Nc2c(C(C)C)cccc2C(C)C)n1 [Example 24, N-[2,6-Bis(1-methylethyl)phenyl]-N'-(2-decyl-2H-tetrazol-5-yl)urea] — within 1.5-fold, 14 nM

System: not given
Experiment: not given
Details: J. Medicinal Chemistry 22, 28-32 (1979); cited from earlier work

In the case of `CCOC(=O)c1ccc(NC(=O)Nc2nnn[nH]2)cc1` [N-(4-ethoxycarbonylphenyl)-N'-tetrazol-5-yl-urea], the antileukemic data is listed as “inactive”.
